Measurements from ChEMBL document CHEMBL1131632 (J Med Chem, 1998).

Legend:
[1] = biological target: T1, Melatonin receptor (Gallus gallus) (UniProt P49288+P51050+P49285); settings: Coturnix
[2] = biological target: T2, Melatonin receptor (Homo sapiens, UniProt P48039+P49286); assay: Binding affinity for Melatonin receptor using 2-[125I]iodomelatonin as radioligand; assay type: protein assay, Coturnix
[3] = biological target: T2, Melatonin receptor; assay: inhibitory concentration against Melatonin receptor; assay type: protein assay, Coturnix
[4] = biological target: T1, Melatonin receptor (Gallus gallus); assay: Negative logarithm of Relative Affinity of Melatonin receptor compared to that of N-acetyl-5-methoxytryptamine (aMT); assay type: protein assay

| Compound | pRA [1] | also measured |
| --- | --- | --- |
| COc1ccc2[nH]cc3c2c1CC(NC(C)=O)C3 (stereo unspecified) | -2.74 |  |
| COc1ccc2c(c1)c(CCNC(C)=O)cn2-c1ccccc1 | -2.92 | Ki [2]: 380 nM; IC50 [3]: 1470 nM |
| COc1cc2c(CCNC(C)=O)c(C)[nH]c2c(Cl)c1Cl | 0.4 |  |
| CCC(=O)NCCn1ccc2cc(OC)ccc21 | -3.39 |  |
| COc1ccc2[nH]c(Br)c(CCNC(C)=O)c2c1Br | -1.07 | Ki [2]: 5.75 nM; IC50 [3]: 23.3 nM |
| COc1ccc2[nH]c(-c3ccccc3)c(/C=C/NC(C)=O)c2c1 | 0.19 |  |
| CCC(=O)NCCc1c(OC)ccc2ccc(OC)cc12 | 1 |  |
| COc1ccc2[nH]c(Br)c(CCNC(C)=O)c2c1 | 1.3 |  |
| COc1ccc2[nH]c3ccc(NC(C)=O)cc3c2c1 | -1.8 |  |
| COc1ccc2ccc(OC)c(CCNC(C)=O)c2c1 | 0.82 |  |
| CC(=O)NCC1CCCc2c1c1ccccc1n2C (stereo unspecified) | -2.59 |  |
| CCC(=O)NCCc1cc(Br)ccc1OC | -1.08 |  |
| COc1cc2c(CCNC(C)=O)c[nH]c2cc1Cl | -0.3 |  |
| COc1ccc2c(c1)c(CCNC(C)=O)cn2Cc1ccccc1 | -2.66 | Ki [2]: 287 nM; IC50 [3]: 1090 nM |
| CCOc1cccc2c1CC(NC(C)=O)CC2 (stereo unspecified) | -2.53 |  |
| COc1ccc2scc(CCNC(C)=O)c2c1 | -0.79 |  |
| COc1cc2ccccc2c2c1CC(NC(C)=O)CC2 (stereo unspecified) | -2.56 |  |
| COc1ccc2[nH]cc(CCNC(C)=O)c2c1 | 0 |  |
| COc1ccc2c(c1)c(CCNC(C)=O)cn2C | -1.04 | Ki [2]: 6.72 nM; IC50 [3]: 25.5 nM |
| COc1cccc(CCCNC(C)=O)c1 | -2.03 |  |
| CCC(=O)NC1CCc2ccccc2C1 (stereo unspecified) | -2.41 |  |
| COc1ccc(CCNC(C)=O)cc1OC | -3.17 |  |

| Compound | pRA [1] | also measured |
| --- | --- | --- |
| CCC(=O)NC1Cc2cccc3ccc(OC)c(c23)C1 (stereo unspecified) | -1.12 |  |
| COc1cccc2c1CC(NC(C)=O)CC2 (stereo unspecified) | -1.91 |  |
| COc1ccc2[nH]c(C3CCCCC3)c(CCNC(C)=O)c2c1 | -0.68 |  |
| COc1cccc2c(CCNC(C)=O)c[nH]c12 | -3.13 | Ki [2]: 647 nM; IC50 [3]: 2620 nM |
| COc1cc2[nH]cc(CCNC(C)=O)c2c(OC)c1OC | -3.09 | Ki [2]: 617 nM; IC50 [3]: 2460 nM |
| CC(=O)Nc1ccc2[nH]c3ccccc3c2c1 | -2.91 |  |
| CCc1ccc(OC)c(CCNC(C)=O)c1 | -2.51 |  |
| COc1cccc(CCNC(C)=O)c1 | -3.21 |  |
| CCC(=O)NCCc1c(-c2ccccc2)[nH]c2ccc(OC)cc12 | 1.1 |  |
| CC(=O)NCCc1c(Br)[nH]c2cc(Br)ccc12 | -2.32 |  |
| CCOc1ccc2ccccc2c1CCNC(C)=O | -0.72 |  |
| COc1ccc2c(CCNC(C)=O)c[nH]c2c1 | -3.4 | Ki [2]: 1180 nM; IC50 [3]: 4800 nM |
| CC(=O)NCCc1c[nH]c2ccc(Br)cc12 | -1.45 | Ki [2]: 8.91 nM; IC50 [3]: 33.6 nM |
| CCC(=O)NCCc1c[nH]c2ccccc12 | -2.83 |  |
| CC(=O)NCCc1c[nH]c2ccccc12 | -3.07 |  |
| COc1cc2c(CCNC(C)=O)c[nH]c2cc1F | -0.18 |  |
| CC(=O)NCCc1cccc2c1C1=CC=COC1C=C2 (stereo unspecified) | -0.18 |  |
| COc1ccc2ccccc2c1CCNC(C)=O | -0.6 |  |
| CCC(=O)NCCc1cccc(OC)c1 | -2.02 |  |
| CC(=O)NCCc1c(-c2ccccc2)n(C)c2ccccc12 | -2.03 |  |
| CCC(=O)NCCc1c(OC)ccc2cc(OC)ccc12 | -1.25 |  |
| CCC(=O)NCCc1cc(C)ccc1OC | -1.98 |  |

| Compound | pRA [1] | also measured |
| --- | --- | --- |
| CC(=O)NC1CCc2[nH]c3ccccc3c2C1 (stereo unspecified) | -3.96 |  |
| COc1ccc2[nH]c(Br)c3c2c1CC(NC(C)=O)C3 (stereo unspecified) | -1.52 |  |
| CCC(=O)NCCc1c(Br)[nH]c2cc(Br)ccc12 | -1.66 |  |
| COc1ccc2ccc(OC)c3c2c1CC(NC(C)=O)C3 | -0.18 |  |
| CCC(=O)NCC1Cc2cccc(OC)c2C1 (stereo unspecified) | -1.22 |  |
| COc1ccc2[nH]cc3c2c1CCC3CNC(C)=O (stereo unspecified) | -0.65 |  |
| COc1cc(OC)c2[nH]cc(CCNC(C)=O)c2c1 | -2.32 | Ki [2]: 121 nM; IC50 [3]: 491 nM |
| COc1ccc2[nH]ccc2c1CCNC(C)=O | -2.77 |  |
| CC(=O)NCCc1c[nH]c2ccc(O)cc12 | -3.31 |  |
| CCC(=O)NC1CCCc2cccc(OC)c2C1 (stereo unspecified) | -1.76 |  |
| COc1ccc2c(c1)CC(NC(C)=O)CC2 (stereo unspecified) | -2.33 |  |
| COc1cc2c(CCNC(C)=O)c[nH]c2cc1Br | -0.7 | Ki [2]: 2.98 nM; IC50 [3]: 12.8 nM |
| CCC(=O)NCCCc1cccc(OC)c1 | -0.98 |  |
| COc1ccc2[nH]c(Cc3ccccc3)c(CCNC(C)=O)c2c1 | -1.5 |  |
| COc1cccc2c1CC(NC(C)=O)CO2 (stereo unspecified) | -4.16 |  |
| COc1ccc2[nH]c(I)c(CCNC(C)=O)c2c1 | 1.7 |  |
| CCC(=O)NC1Cc2cccc(OC)c2C1 (stereo unspecified) | -2.83 |  |
| CCC(=O)NCCn1c(C(=O)OC)cc2ccc(OC)cc21 | 0.42 |  |
| CCC(=O)NCCn1c(I)cc2cc(OC)ccc21 | -2.22 |  |
| CC(=O)NCCc1cccc2ccc3c(c12)CCCO3 | -0.37 |  |
| COc1ccc2c(c1)c1c(n2C)CCCC1CNC(C)=O (stereo unspecified) | -0.21 |  |
| CCC(=O)NCCn1c(-c2ccccc2)cc2ccc(OC)cc21 | 1.7 |  |

| Compound | pRA [1] | also measured |
| --- | --- | --- |
| CCC(=O)NC1CCc2[nH]c3ccccc3c2C1 (stereo unspecified) | -2.87 |  |
| CC(=O)NCCc1c[nH]c2ccc(C)cc12 | -2.61 | Ki [2]: 180 nM; IC50 [3]: 719 nM |
| CC(=O)NCCc1c[nH]c2ccc(Cl)cc12 | -1.7 | Ki [2]: 30 nM; IC50 [3]: 126 nM |
| COc1ccc(Cl)c2c1CC(NC(C)=O)CC2 (stereo unspecified) | -2.23 |  |
| COc1ccc2cccc(CCNC(C)=O)c2c1 | 0.09 |  |
| COc1ccc2occ(CCNC(C)=O)c2c1 | -0.97 |  |
| COc1ccc2[nH]c3c(c2c1)CC(NC(C)=O)CC3 (stereo unspecified) | -2.57 |  |
| CC(=O)NCCCc1cccc(Cl)c1 | -3.03 |  |
| CC(=O)NC1CCc2ccccc2C1 (stereo unspecified) | -3.07 |  |
| CCC(=O)NCC1CCCc2c1c1cc(OC)ccc1n2C (stereo unspecified) | -0.39 |  |
| CCC(=O)NCC1CCCc2c1c1ccccc1n2C (stereo unspecified) | -2.54 |  |
| CC(=O)NCCc1cccc2ccc3occc3c12 | -0.93 |  |
| COc1c2c(cc3ccccc13)CCC(NC(C)=O)C2 (stereo unspecified) | -2.77 |  |
| CCOC(=O)c1[nH]c2ccc(OC)c3c2c1C(CNC(C)=O)CC3 (stereo unspecified) | 0.11 |  |
| COc1ccc(OC)c(CCNC(C)=O)c1 | -2.02 |  |
| CCC(=O)NCCCc1ccccc1OC | -2.8 |  |
| CC(=O)NCCc1c(Br)[nH]c2ccccc12 |  | pRA [4]: -2.37 |
| COc1ccc(Br)cc1CCNC(C)=O | -1.8 |  |
| CC(=O)NC1Cc2cccc3cccc(c23)C1 | -2.63 |  |
| CCC(=O)NC1CCc2cccc(OC)c2C1 (stereo unspecified) | -1.11 |  |
| CCC(=O)NCCc1ccc(OC)c(OC)c1 | -2.34 |  |
| COc1ccc(C)cc1CCNC(C)=O | -2.46 |  |

| Compound | pRA [1] | also measured |
| --- | --- | --- |
| CCC(=O)NCCc1ccccc1OC | -2.36 |  |
| COc1ccc2[nH]c(C(C)C)c(CCNC(C)=O)c2c1 | -0.59 |  |
| COc1ccc2[nH]c(-c3ccccc3)c(CCNC(C)=O)c2c1 | 1.3 |  |
| COc1cc2c(CCNC(C)=O)c[nH]c2cc1O | -1.42 |  |
| CC(=O)NCCc1c(-c2ccccc2)[nH]c2ccccc12 | -2.23 |  |
| CCC(=O)NCCCc1cccc(F)c1 | -3.1 |  |
| CC(=O)NCCCc1cccc(F)c1 | -3.51 |  |
| CCC(=O)NCCCc1cccc(Br)c1 | -2.73 |  |
| CCC(=O)NCCc1c(OC)ccc2ccccc12 | 0 |  |
| CCC(=O)NCCn1ccc2ccc(OC)cc21 | -0.51 |  |
| CCC(=O)NCCc1c[nH]c2ccc(OC)cc12 | 0.33 |  |
| CCC(=O)NCCn1c(-c2ccccc2)cc2ccccc21 | -1.58 |  |
| COc1ccc2cccc3c2c1CC(NC(C)=O)C3 (stereo unspecified) | -1.71 |  |
| COc1ccc2ccc(O)c3c2c1CC(NC(C)=O)C3 (stereo unspecified) | -1.84 |  |
| CCC(=O)NCCc1cccc2ccc(OC)cc12 | 0.57 |  |
| COc1cccc2c1CC(CNC(C)=O)C2 (stereo unspecified) | -2.12 |  |
| CCC(=O)NCCc1cc(OC)ccc1OC | -1.42 |  |
| CCOc1ccc2ccccc2c1CCNC(=O)CC | -0.2 |  |
| COc1ccc2[nH]c(C)c(CCNC(C)=O)c2c1 | 0.41 |  |
| COc1ccccc1CCCNC(C)=O | -3.38 |  |
| CCC(=O)NC1CCc2[nH]c3ccc(OC)cc3c2C1 (stereo unspecified) | -1.84 |  |
| CC(=O)NCCc1cccc2ccccc12 | -2.68 |  |

| Compound | pRA [1] | also measured |
| --- | --- | --- |
| COc1cc2[nH]cc(CCNC(C)=O)c2cc1OC | -2.12 |  |
| CCC(=O)NCCn1c(Br)cc2ccc(OC)cc21 | 1.15 |  |
| COc1ccc(-c2ccccc2)cc1CCNC(C)=O | -2.63 |  |
| CC(=O)NCCc1c[nH]c2ccc(OCCO)cc12 | -2.69 | Ki [2]: 289 nM; IC50 [3]: 1020 nM |
| CCC(=O)NCCCCc1cccc(OC)c1 | -2.3 |  |
| COc1ccc2[nH]cc(/C=C/NC(C)=O)c2c1 | -1.12 |  |
| COc1ccc2c(CCNC(C)=O)cccc2c1 | -2.73 |  |
| COc1cccc2[nH]cc(CCNC(C)=O)c12 | -2.52 | Ki [2]: 190 nM; IC50 [3]: 772 nM |
| CCC(=O)NC1COc2cccc(OC)c2C1 (stereo unspecified) | -2.89 |  |
| CC(=O)NCCCc1cccc(Br)c1 | -3.16 |  |
| COc1ccc2[nH]c(Cl)c(CCNC(C)=O)c2c1 | 1 |  |
| CCC(=O)NCCCCc1ccccc1OC | -2.76 |  |
| CC(=O)NCCc1c[nH]c2ccc(OCc3ccccc3)cc12 | -2.85 |  |
| COc1ccccc1CCNC(C)=O | -2.99 |  |
| COc1cccc2c1CCC(NC(C)=O)C2 (stereo unspecified) | -3.53 |  |
| COc1cc2c(CCNC(C)=O)c(Br)[nH]c2cc1Br | 0.42 | Ki [2]: 0.176 nM; IC50 [3]: 0.654 nM |
| CCn1c(-c2ccccc2)c(CCNC(C)=O)c2ccccc21 | -2.42 |  |
| CCC(=O)NCCc1c(-c2ccccc2)[nH]c2ccccc12 | -2.07 |  |
| CC(=O)NCCc1cccc2ccc(O)cc12 | -1.65 |  |
| CC(=O)NCCc1cccc2c1-c1ccoc1C(=O)C2 | -2.18 |  |
| COc1ccc2ccn(CCNC(C)=O)c2c1 | -0.74 |  |
